# Values quoted from earlier work in patent US20250152503A1, “IMPLANTABLE DEVICES FOR THE SUSTAINED DELIVERY OF AN OPIOID ANTAGONIST AND METHODS FOR TREATING INFLAMMATORY, NEUROINFLAMMATORY AND METABOLIC DISORDERS” (Delpor, Inc., priority 2022, published 2025).
# Experiments:
# [1] = target: Toll-like receptor 4 (TLR4) (Homo sapiens, UniProt O00206+Q9Y6Y9)
# [2] = 25° C.
# [3] = oral, typical dose 50 mg/day
# Sequence of Toll-like receptor 4 (TLR4) (O00206 24-839, species assumed): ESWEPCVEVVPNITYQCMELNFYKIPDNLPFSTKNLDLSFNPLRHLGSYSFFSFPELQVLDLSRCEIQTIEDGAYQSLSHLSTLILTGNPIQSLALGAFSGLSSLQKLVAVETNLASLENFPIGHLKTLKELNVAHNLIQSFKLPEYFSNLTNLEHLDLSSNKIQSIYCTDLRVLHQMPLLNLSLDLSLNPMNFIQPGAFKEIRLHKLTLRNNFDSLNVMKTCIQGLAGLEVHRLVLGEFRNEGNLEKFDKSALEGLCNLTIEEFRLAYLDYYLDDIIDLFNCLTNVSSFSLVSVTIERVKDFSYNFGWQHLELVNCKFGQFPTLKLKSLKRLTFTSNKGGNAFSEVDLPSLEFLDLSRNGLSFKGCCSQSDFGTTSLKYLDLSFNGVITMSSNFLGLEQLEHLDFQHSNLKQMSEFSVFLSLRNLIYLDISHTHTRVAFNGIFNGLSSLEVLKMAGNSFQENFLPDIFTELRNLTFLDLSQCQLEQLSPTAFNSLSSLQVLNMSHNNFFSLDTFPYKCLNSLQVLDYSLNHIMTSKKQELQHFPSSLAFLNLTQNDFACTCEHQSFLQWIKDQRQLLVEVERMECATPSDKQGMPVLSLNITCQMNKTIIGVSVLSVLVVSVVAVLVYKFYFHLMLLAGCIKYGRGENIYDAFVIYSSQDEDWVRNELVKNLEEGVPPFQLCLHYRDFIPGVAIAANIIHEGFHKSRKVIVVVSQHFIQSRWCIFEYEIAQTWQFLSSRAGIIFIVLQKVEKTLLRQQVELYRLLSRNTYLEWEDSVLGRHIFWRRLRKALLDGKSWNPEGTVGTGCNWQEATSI
# Sequence of Toll-like receptor 4 (TLR4) (Q9Y6Y9 17-160 limits assumed, species assumed): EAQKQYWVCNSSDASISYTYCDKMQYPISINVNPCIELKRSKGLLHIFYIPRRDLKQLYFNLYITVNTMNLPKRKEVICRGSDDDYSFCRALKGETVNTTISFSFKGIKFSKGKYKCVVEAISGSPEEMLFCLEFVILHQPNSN
Molecule,antagonism of TLR4 signaling [1],reported aqueous solubility [2],average bioavailability [3]
C=CCN1CC[C@]23c4c5ccc(O)c4O[C@H]2C(=O)CC[C@]3(O)[C@H]1C5 [(+)-naloxone],antagonize TLR4 signaling,,
O=C1CC[C@]2(O)[C@@H]3Cc4ccc(O)c5c4[C@]2(CCN3CC2CC2)[C@@H]1O5 [(+)-naltrexone],antagonize TLR4 signaling,,
C=C1CC[C@@]2(O)[C@H]3Cc4ccc(O)c5c4[C@@]2(CCN3CC2CC2)[C@H]1O5 [nalmefene],,140 µg/mL,
O=C1CC[C@@]2(O)[C@H]3Cc4ccc(O)c5c4[C@@]2(CCN3CC2CC2)[C@H]1O5 [naltrexone],,667 µg/mL,5-40%
(−)-nalmefene,antagonize TLR4 signaling,,
(−)-naloxone,antagonize TLR4 signaling,,
(−)-naltrexone,antagonize TLR4 signaling,,
